# Results: patent publication US20120270744A1, “METHODS TO DETERMINE IF A SUBJECT WILL RESPOND TO A BCR-ABL INHIBITOR” (Oregon Health & Science University, priority 2007, published 2012)
# Like-named read-outs stand apart in the source and are kept apart here.
# Key:
# [1] = system: patients with CML in chronic phase; conditions: cited from earlier work; for risk of progression to accelerated phase or blast crisis: at 5 years
# [2] = system: Lin−/CD34+/CD38+ and Lin−/CD34+/CD38− CML cells; test: Culture of sorted primitive CML cells with imatinib: growth and viability; format: cell-based, human; conditions: 5 μM imatinib, physiological concentrations of cytokines
# Description: FIGS. 9A-9C are a set of graphs dot plots and digital images of Western blots showing viable cells and phosphotyrosine content following treatment with a BCR-ABL inhibitor. […] (FIG. 9B) After 2 hours, immunoblot analysis of cellular extracts for Crkl phosphorylation was preformed. (FIG. 9C) Aliquots from the same cultures were analyzed by FACS analysis for total cellular phosphotyrosine content. Results were identical after 96 hours of culture.
# A combination of lineage-depletion columns and high speed sorting was used to select highly pure populations of Lin−/CD34+/CD38+(enriched for progenitor cells) and Lin−/CD34+/[…] (enriched for stem cells). […] It was concludes that survival of primitive CML cells may not require BCR-ABL kinase activity, implicating BCR-ABL-independent extrinsic or intrinsic mechanisms in the maintenance of viability.
# CML CD34+ cells = test: Centrifugal adhesion assay to fibronectin with fluorescently labeled cells; format: cell-based, human
# Description: (FIG. 10A) Adhesion under the carious conditions. (FIG. 10B) Fold expansion of viable cells. (FIG. 10C) Recovery of CFU-GM.
# To reliably quantify adherence we modified the McClay (1981 PNAS 78:4975-9) centrifugal adhesion assay, using fluorescently labeled cells.
# [3] = system: newly diagnosed chronic phase CML patients; test: Cytogenetic response of validation set patients treated with imatinib; format: in vivo, human; conditions: within 12 months, 23 newly diagnosed chronic phase patients
smiles,measurement,setting,value
Cc1ccc(NC(=O)c2ccc(CN3CCN(C)CC3)cc2)cc1Nc1nccc(-c2cccnc2)n1 [imatinib],projected overall survival,[1]; 60 months of follow-up,89%
same,patients who progressed to accelerated phase or blast crisis,[1]; among those who lost response,7%
same,risk of progression to accelerated phase or blast crisis,[1]; patients in complete cytogenetic response after 12 months of therapy,3%
same,risk of progression to accelerated phase or blast crisis,[1]; patients with primary cytogenetic resistance,19%
same,patients with primary cytogenetic resistance (failed to attain a major cytogenetic response),[1]; at 12 months,approximately 14%
same,patients who lost their response,"[1]; human, in vivo",approximately 16%
same,"cumulative rate of complete cytogenetic response (CCyR, 0% Ph+ metaphases)","[1]; newly diagnosed CML in chronic phase, imatinib as initial therapy, 60 months of follow-up",87%
same,viability,[2],viability was maintained
same,growth (total number of viable cells over time),[2]; preliminary experiments N=4,reduced to approximately the level of normal cells
same,spontaneous adhesion to fibronectin,"CML CD34+ cells; imatinib 5 micoM, 96 hours culture",further reduced
same,adhesion to fibronectin,CML CD34+ cells; imatinib in presence of beta1 integrin activating antibody B44,again reduced
same,patients who achieved CCyR,[3],74%
